Results: the Kinase Knowledgebase extract (Sharma et al. 2016)
pIC50: −log10 of the molar value. Values joined by “and” are separate entries in the source; they are usually repeats but may differ in a detail not shown here. Equal values may be shown once.

What follows are molecules tested against PIK3CA (human) (UniProt P42336) (assay: Enzyme Assay).
PIK3CA (human), sequence (P42336 whole entry, looked up): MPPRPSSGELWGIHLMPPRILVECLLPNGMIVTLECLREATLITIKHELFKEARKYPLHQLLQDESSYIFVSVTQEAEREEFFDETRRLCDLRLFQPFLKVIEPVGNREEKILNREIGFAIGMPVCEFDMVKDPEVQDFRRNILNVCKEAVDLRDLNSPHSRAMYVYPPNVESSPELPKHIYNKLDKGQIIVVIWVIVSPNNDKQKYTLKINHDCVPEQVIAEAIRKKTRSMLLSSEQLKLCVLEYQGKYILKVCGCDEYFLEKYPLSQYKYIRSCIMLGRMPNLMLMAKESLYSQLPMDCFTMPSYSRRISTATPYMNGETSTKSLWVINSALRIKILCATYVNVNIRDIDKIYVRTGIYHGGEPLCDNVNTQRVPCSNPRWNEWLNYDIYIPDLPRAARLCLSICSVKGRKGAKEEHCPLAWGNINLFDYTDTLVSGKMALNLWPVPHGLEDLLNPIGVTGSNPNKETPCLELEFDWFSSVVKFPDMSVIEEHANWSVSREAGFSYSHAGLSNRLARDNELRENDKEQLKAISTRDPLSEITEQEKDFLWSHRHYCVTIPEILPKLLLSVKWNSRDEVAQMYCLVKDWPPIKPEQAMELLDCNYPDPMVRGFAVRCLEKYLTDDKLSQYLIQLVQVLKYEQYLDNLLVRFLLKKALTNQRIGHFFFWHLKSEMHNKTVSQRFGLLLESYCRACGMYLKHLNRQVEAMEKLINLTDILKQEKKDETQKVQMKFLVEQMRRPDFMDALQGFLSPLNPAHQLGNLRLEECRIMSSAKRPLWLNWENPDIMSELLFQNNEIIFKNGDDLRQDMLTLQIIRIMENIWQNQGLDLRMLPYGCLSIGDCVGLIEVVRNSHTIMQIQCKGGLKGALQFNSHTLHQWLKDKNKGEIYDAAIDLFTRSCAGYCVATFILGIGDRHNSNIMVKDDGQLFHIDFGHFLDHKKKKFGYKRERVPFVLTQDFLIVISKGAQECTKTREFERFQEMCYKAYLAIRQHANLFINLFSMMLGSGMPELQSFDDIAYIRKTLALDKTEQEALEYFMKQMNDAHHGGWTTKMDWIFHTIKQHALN

Row | Structure (SMILES) | pIC50
1 | CCc1ncnc(-c2ccc(C(=O)N3CCN(C(C)C)CC3)c(Cl)c2)c1C#Cc1ccc(N)nc1 | 6.61
2 | Cc1ncnc(-c2ccc(Cl)c(C(=O)N3CCCCC3)c2)c1C#Cc1ccc(N)nc1 | 6.51
3 | CCc1ncnc(-c2ccc(C(=O)N(C)C)c(F)c2)c1C#Cc1ccc(C)nc1 | 6.65
4 | CCc1ncnc(-c2cc(F)c(C(=O)N3CCC4(CC3)CC(=O)CO4)c(F)c2)c1C#Cc1ccc(N)nc1 | 6.84
5 | CCc1ncnc(-c2ccc(C(=O)N3CC[S+]([O-])CC3)c(F)c2)c1C#Cc1ccc(N)nc1 | 7.34
6 | CCc1ncnc(-c2ccc(Cl)c(C(=O)N(C)C)c2)c1C#Cc1ccc(N)nc1 | 6.71
7 | CCc1ncnc(-c2ccc(C(=O)N3CC[C@@H](N(C)C)C3)c(OC)c2)c1C#Cc1ccc(N)nc1 | 6.45
8 | CCc1ncnc(-c2ccc(C(=O)N3CCOC(C)(C)C3)c(F)c2)c1C#Cc1ccc(N)nc1 | 6.97
9 | CCc1ncnc(-c2ccc(C(=O)N(C)CCN3CCCC3=O)c(C)c2)c1C#Cc1ccc(N)nc1 | 7.50
10 | CCc1ncnc(-c2ccc(C(=O)N3CCCC(N(C)C)C3)c(C)c2)c1C#Cc1ccc(N)nc1 (configuration not stated) | 6.76
11 | CCc1ncnc(-c2ccc(C(=O)N3CC(O)CO3)c(F)c2)c1C#Cc1ccc(N)nc1 (configuration not stated) | 7.19
12 | CCc1ncnc(-c2ccc(C(=O)N3CC[S+]([O-])CC3)c(Cl)c2)c1C#Cc1ccc(N)nc1 | 7.20 and 7.19
13 | CCNc1ccc(C#Cc2c(CC)ncnc2-c2ccc(C(=O)N3CCN(C4CCC4)CC3)c(F)c2)cn1 | 6.69
14 | CCc1ncnc(-c2ccc(C(=O)N3C[C@H]4C[C@@H]3CN4C)c(F)c2)c1C#Cc1ccc(N)nc1 | 6.48
15 | CCc1ncnc(-c2ccc(C(=O)N3CCN4CCCCC4C3)c(C)c2)c1C#Cc1ccc(N)nc1 (configuration not stated) | 6.94
16 | CCc1ncnc(-c2ccc(C(=O)NC3CC(N4CCC(O)CC4)C3)c(F)c2)c1C#Cc1ccc(N)nc1 (configuration not stated) | 6.45
17 | CCc1ncnc(-c2ccc(C(=O)N3CCC(OC)CC3)c(C)c2)c1C#Cc1ccc(N)nc1 | 7.17
18 | CCc1ncnc(-c2ccc(C(=O)N3CCC[C@H]3CO)c(F)c2)c1C#Cc1ccc(N)nc1 | 6.87
19 | CCc1ncnc(-c2ccc(C(=O)N3CCC(N4CCC(C)CC4)C3)c(C)c2)c1C#Cc1ccc(N)nc1 (configuration not stated) | 6.70
20 | CCc1ncnc(-c2ccc(C(=O)N3CCC(C)(O)CC3)c(F)c2)c1C#Cc1ccc(N)nc1 | 6.96
21 | CCc1ncnc(-c2ccc(C(=O)N3CCC(N4CCN(C)CC4)CC3)c(C)c2)c1C#Cc1ccc(N)nc1 | 6.51

Results, then the molecule that gave them:

Row | pIC50 | Structure (SMILES)
22 | 7.04 | CCc1ncnc(-c2ccc(C(=O)N3CCN(C4CCCC4)CC3)c(C)c2)c1C#Cc1ccc(N)nc1
23 | 7.18 | CCc1ncnc(-c2ccc(C(=O)N3CCCOCC3)c(Cl)c2)c1C#Cc1ccc(N)nc1
24 | 7.00 | CCc1ncnc(-c2ccc(C(=O)N3CCC(C(C)(C)O)CC3)c(Cl)c2)c1C#Cc1ccc(N)nc1
25 | 7.19 | CCc1ncnc(-c2ccc(C(=O)N3CCCC(O)C3)c(Cl)c2)c1C#Cc1ccc(N)nc1 (configuration not stated)
26 | 7.28 | CCc1ncnc(-c2ccc(C(=O)N3CCC(O)CC3)c(Cl)c2)c1C#Cc1ccc(N)nc1
27 | 6.39 | CCc1ncnc(-c2ccc(C(=O)N3CCCN(C)CC3)c(Cl)c2)c1C#Cc1ccc(N)nc1
28 | 7.18 | CCc1ncnc(-c2ccc(C(=O)N3CC[C@@H](O)C3)c(Cl)c2)c1C#Cc1ccc(N)nc1
29 | 6.30 | CCc1ncnc(-c2ccc(C(=O)N3CCC(C(F)(F)F)CC3)c(Cl)c2)c1C#Cc1ccc(N)nc1
30 | 6.64 | CCc1ncnc(-c2ccc(C(=O)N3CCN(CC4CC4)CC3)c(Cl)c2)c1C#Cc1ccc(N)nc1
31 | 6.29 | CCc1ncnc(-c2ccc(C(=O)NC3CCCN(C)C3)c(Cl)c2)c1C#Cc1ccc(N)nc1 (configuration not stated)
32 | 7.43 | CCc1ncnc(-c2ccc(C(=O)N3CCN(S(=O)(=O)CC)CC3)c(C)c2)c1C#Cc1ccc(N)nc1
33 | 6.68 | CCc1ncnc(-c2ccc(C(=O)N3CCN(c4ccncc4)CC3)c(Cl)c2)c1C#Cc1ccc(N)nc1
34 | 6.79 | CCc1ncnc(-c2ccc(C(=O)N3CCNCC3)c(Cl)c2)c1C#Cc1ccc(N)nc1
35 | 7.03 | CCc1ncnc(-c2ccc(C(=O)N3CCC(OC)CC3)c(Cl)c2)c1C#Cc1ccc(N)nc1
36 | 7.17 | CCc1ncnc(-c2ccc(C(=O)N(C)O)c(Cl)c2)c1C#Cc1ccc(N)nc1
37 | 7.09 | CCc1ncnc(-c2ccc(C(=O)N3CCC(OC)CC3)c(F)c2)c1C#Cc1ccc(N)nc1
38 | 7.24 | CCc1ncnc(-c2ccc(C(=O)N3CC[C@H](O)C3)c(Cl)c2)c1C#Cc1ccc(N)nc1
39 | 6.43 | CCc1ncnc(-c2ccc(C(=O)N3CCC(C4CCN(C)CC4)CC3)c(Cl)c2)c1C#Cc1ccc(N)nc1
40 | 6.43 | CCc1ncnc(-c2ccc(C(=O)N3CCN(CCN(C)C)CC3)c(Cl)c2)c1C#Cc1ccc(N)nc1
41 | 7.11 | CCc1ncnc(-c2ccc(C(=O)N3CCC(C)(O)CC3)c(Cl)c2)c1C#Cc1ccc(N)nc1
42 | 6.63 | CCc1ncnc(-c2ccc(C(=O)N3CCC(N(C)C)CC3)c(C)c2)c1C#Cc1ccc(N)nc1
